Assay results taken from publication PMC11423540, “Synthesis and biological evaluation of ortho-phenyl phenylhydroxamic acids containing phenothiazine with improved selectivity for class IIa histone deacetylases” (Journal of Enzyme Inhibition and Medicinal Chemistry, 2024).

Experiments:
[1] = target: HDAC9 (Homo sapiens, UniProt Q9UKV0); test: HDAC inhibition assay, HDAC9
[2] = tested on: HeLa nuclear HDACs; test: HDAC inhibition assay, HeLa nuclear extract (mixture of class I HDACs 1, 2, and 3); conditions: read-out: IC50 HeLa nuclear HDACs, Boc-Lys-(AMC) substrate
[3] = target: HDAC4 (Homo sapiens, UniProt P56524); test: HDAC inhibition assay, HDAC4
Sequence of HDAC4 (P56524 whole entry): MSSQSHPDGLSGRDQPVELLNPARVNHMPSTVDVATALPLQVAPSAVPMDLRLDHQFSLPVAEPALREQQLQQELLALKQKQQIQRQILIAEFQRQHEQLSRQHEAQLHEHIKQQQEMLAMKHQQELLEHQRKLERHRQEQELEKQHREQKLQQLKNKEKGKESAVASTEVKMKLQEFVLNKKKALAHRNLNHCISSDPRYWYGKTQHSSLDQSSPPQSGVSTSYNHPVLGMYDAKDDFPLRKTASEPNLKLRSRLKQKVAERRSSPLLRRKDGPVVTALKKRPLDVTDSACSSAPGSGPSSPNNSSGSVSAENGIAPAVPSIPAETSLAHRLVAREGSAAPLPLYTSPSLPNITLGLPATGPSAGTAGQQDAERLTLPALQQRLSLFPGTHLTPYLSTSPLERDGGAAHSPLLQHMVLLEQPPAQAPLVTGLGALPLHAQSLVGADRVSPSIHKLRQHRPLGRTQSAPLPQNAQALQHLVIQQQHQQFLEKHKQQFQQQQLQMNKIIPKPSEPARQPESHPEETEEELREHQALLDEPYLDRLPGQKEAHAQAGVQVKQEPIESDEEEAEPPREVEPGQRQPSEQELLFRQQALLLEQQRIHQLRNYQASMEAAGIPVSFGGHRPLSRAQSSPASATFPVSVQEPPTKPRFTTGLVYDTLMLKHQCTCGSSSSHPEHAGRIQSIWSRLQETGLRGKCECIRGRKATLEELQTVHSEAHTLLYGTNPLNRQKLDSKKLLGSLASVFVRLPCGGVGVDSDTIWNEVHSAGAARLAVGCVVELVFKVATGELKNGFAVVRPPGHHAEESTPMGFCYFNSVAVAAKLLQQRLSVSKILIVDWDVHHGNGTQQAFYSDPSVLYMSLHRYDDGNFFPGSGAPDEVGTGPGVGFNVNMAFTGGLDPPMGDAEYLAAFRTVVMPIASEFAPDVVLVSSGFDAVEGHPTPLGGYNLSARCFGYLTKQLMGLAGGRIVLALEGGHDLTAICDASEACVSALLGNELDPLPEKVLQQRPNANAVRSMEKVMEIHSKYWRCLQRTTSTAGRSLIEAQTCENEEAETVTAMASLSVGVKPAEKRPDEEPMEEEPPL

[4] = tested on: SCM-1 cells; test: Cell viability (MTT) assay, SCM-1; format: cell-based; conditions: human gastric cancer cells, read-out: IC50 of cytotoxicity SCM-1
Text: (§1) Human breast cancer MDA-MB-231 cells and gastric cancer SCM-1 cells were purchased from the American Type Culture Collection (Manasas, VA, USA). SCC2095 human oral cancer cells were kindly provided by Professor Susan R. Mallery (The Ohio State University). Normal human lung fibroblasts (NHLFs; CC-2512) were purchased from the Lonza (Walkersville, MD, USA). SCM-1 cells were maintained in RPMI-1640 medium (Invitrogen, Carlsbad, CA, USA); MDA-MB-231 and SCC2095 cells were maintained in DMEM/F12 (Invitrogen); and NHLFs were maintained in FGM™-2 medium (Lonza) with 2% serum, supplemented with 10% heat-inactivated foetal bovine serum (FBS; Gibco, Grand Island, NY, USA). All cells were cultured at 37 °C in a humidified incubator containing 5% CO2 and 95% relative humidity.
(§2) To assess cell viability, cells were seeded in three replicates into 96-well plates at a density of 5×10^3/well for 24 h following incubation with compounds at the indicated concentrations. Then, cell viability was assessed with 3–(4,5-dimethylthiazol-2-yl)-2,5-diphenyltetrazolium bromide (MTT) solution (0.5 mg/mL) for 4h as described previously. After removing the medium, 200 µL of DMSO was added, and then the absorbance was measured at 570 nm using a plate reader (BMG LABTECH, Germany).

[5] = target: T1, HDAC8 (Homo sapiens, UniProt Q9BY41); test: HDAC inhibition assay, HDAC8
T1 sequence (Q9BY41 1-377): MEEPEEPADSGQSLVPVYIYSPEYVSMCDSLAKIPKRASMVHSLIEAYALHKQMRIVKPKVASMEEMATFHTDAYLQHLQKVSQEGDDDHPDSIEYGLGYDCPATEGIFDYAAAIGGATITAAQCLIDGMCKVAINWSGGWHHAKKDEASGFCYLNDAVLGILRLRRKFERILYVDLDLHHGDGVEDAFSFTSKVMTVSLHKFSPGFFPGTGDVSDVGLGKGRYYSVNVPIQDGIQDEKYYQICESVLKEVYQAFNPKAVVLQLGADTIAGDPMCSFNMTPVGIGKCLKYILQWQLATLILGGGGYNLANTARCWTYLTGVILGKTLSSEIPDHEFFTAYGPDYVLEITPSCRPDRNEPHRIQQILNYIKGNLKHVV

[6] = target: T2, HDAC6 (Homo sapiens, UniProt Q9UBN7); test: HDAC inhibition assay, HDAC6
T2 sequence (Q9UBN7 1-1215): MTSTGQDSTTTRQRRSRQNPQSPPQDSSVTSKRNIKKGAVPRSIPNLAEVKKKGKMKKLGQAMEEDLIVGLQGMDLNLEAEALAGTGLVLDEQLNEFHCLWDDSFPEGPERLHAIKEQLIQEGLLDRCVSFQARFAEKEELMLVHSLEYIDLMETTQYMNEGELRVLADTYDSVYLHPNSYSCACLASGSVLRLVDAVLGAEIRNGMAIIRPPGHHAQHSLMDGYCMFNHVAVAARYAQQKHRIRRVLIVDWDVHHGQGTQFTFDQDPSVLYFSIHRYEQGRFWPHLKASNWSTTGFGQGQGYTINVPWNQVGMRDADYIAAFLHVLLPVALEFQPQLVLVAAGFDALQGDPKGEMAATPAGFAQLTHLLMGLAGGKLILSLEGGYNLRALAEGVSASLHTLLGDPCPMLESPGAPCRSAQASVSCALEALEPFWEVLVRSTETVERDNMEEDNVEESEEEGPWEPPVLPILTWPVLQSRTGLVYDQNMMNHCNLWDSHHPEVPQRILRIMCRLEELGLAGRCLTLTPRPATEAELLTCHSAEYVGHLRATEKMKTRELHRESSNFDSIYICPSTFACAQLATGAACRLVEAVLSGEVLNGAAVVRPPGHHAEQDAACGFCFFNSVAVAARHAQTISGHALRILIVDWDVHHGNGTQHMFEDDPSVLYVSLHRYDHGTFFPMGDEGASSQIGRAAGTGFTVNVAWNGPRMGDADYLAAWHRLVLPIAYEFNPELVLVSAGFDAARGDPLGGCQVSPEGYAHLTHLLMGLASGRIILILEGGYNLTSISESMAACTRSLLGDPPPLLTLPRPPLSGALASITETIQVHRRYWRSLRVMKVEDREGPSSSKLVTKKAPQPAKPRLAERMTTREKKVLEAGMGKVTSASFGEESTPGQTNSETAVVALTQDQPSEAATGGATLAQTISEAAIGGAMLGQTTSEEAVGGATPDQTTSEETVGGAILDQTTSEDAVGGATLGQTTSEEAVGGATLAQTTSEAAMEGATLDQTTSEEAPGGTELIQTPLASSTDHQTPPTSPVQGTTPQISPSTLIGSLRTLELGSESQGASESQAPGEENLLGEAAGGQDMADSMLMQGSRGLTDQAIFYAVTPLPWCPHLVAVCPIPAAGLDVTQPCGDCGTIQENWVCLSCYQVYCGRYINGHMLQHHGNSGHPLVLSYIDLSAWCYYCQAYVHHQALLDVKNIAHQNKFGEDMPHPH

[7] = tested on: SCC2095, MDA-MB-231 and SCM-1 cells; test: Cell viability (MTT) assay, cancer cell lines (summary); format: cell-based; conditions: Homo sapiens; SCC2095, MDA-MB-231, SCM-1; read-out: IC50 of cytotoxicity, range over cancer cell lines
Text: as §1, §2

[8] = tested on: SCC2095 cells; test: Cell viability (MTT) assay, SCC2095; format: cell-based; conditions: Homo sapiens, 48 h, human oral cancer cells, read-out: IC50 of cytotoxicity SCC2095
Protocol: Human breast cancer MDA-MB-231 cells and gastric cancer SCM-1 cells were purchased from the American Type Culture Collection (Manasas, VA, USA). SCC2095 human oral cancer cells were kindly provided by Professor Susan R. Mallery (The Ohio State University).
as §2

[9] = tested on: MDA-MB-231 cells; test: Cell viability (MTT) assay, MDA-MB-231; format: cell-based; conditions: human breast cancer cells, read-out: IC50 of cytotoxicity MDA-MB-231
Text: as §1, §2

Sequence of HDAC9 (Q9UKV0 whole entry): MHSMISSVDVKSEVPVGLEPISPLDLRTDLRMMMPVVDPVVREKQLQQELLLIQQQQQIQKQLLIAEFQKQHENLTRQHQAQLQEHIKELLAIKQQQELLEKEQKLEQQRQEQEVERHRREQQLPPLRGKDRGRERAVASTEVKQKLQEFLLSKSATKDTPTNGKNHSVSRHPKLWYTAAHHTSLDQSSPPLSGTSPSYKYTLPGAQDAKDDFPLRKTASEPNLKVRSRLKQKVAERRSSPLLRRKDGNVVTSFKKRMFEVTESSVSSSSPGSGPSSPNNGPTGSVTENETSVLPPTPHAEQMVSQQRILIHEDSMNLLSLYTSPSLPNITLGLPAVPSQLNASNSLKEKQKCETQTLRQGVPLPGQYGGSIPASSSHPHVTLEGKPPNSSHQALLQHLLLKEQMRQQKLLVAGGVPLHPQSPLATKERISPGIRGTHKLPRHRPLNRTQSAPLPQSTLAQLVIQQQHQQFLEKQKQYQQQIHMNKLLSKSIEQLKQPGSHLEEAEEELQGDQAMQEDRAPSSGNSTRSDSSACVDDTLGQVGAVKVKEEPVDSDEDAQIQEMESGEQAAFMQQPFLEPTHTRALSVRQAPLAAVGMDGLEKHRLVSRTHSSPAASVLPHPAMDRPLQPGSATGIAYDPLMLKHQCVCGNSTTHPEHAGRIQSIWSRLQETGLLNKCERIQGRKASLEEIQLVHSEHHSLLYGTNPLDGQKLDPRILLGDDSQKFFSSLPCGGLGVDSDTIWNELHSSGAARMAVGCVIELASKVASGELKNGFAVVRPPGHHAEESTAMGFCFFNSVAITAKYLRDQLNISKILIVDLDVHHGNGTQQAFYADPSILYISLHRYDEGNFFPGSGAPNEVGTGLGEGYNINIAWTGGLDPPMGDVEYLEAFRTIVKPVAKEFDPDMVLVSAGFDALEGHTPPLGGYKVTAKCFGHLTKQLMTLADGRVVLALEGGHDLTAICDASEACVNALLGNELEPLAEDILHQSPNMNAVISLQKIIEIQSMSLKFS

IC50 [1]: 0.04 ± 0.001 µM | IC50 [2]: > 40 µM | IC50 [3]: 0.18 ± 0.06 µM | IC50 [5]: 1.95 µM | IC50 [6]: 0.97 ± 0.05 µM
SMILES: NC(=NO)c1ccc2c(c1)N(Cc1ccc(C(=O)NO)c(-c3ccccc3)c1)c1ccccc1S2 [Compound 7g, N-Hydroxy-4-[2-(N’-hydroxycarbamimidoyl)-10H-phenothiazin-10-yl]methyl-2-phenylbenzamide]
IC50 [4]: 5.8 ± 0.3 µM | IC50 [7]: 3 to 8.4 µM | IC50 [8]: 3 ± 0.3 µM | IC50 [9]: 8.4 ± 2.7 µM
